Where two headings read alike, the source gives them in different places.
Molecular target: KPC-2 (UNIPROT Q9F663) from Klebsiella pneumoniae, SEQ ID NO. 32 (Klebsiella pneumoniae, UniProt Q9F663)
Conditions: E. coli cells
Procedure: An in vivo assay was conducted to test the inhibitory capacity of four β-lactamases from three resistant microorganisms: BlaMab from Mycobacterium abscessus, KPC-2 (UNIPROT Q9F663) and OXA-48 (UNIPROT Q6XEC0) from Klebsiella pneumoniae, and VIM-2 (UNIPROT B8QIQ9) from Pseudomonas aeruginosa. The assay utilized BL21(DE3) strain cells of Escherichia coli transformed with the expression vector pET26b(+) along with the gene sequence of each β-lactamase. Cells successfully transformed with the vector and insert were selected using a Kanamycin resistance gene (KanR) present in the vector. The presence and orientation of the insert were confirmed using PCR and sequencing. Additionally, the pET26b(+) vector has an IPTG-inducible promoter to activate the translation of the corresponding β-lactamase. The plasmid also includes a pelB export signal directing the β-lactamase to the periplasmic space of the bacteria for the inhibition assay with Ndis (nanobodies, single-domain antibodies).
To obtain Table 4 with the enzymatic constants (Km, Vmax, Kmi, and Ki) of BlaMab-2, KPC-2, VIM-2, and OXA-48 with B2 and B5, a quantitative assay was performed using a cephalosporin analog: nitrocefin. This compound changes color from yellow to red when hydrolyzed by β-lactamase, which can be quantified by measuring absorbance at 490nm. This method was used to study the membrane permeability of the antibodies in the bacteria as well as the inhibitory effect of B2 and B5 on the activity of BlaMab, KPC-2, OXA48, and VIM-2.

Sequence of KPC-2 (UNIPROT Q9F663) from Klebsiella pneumoniae, SEQ ID NO. 32 (Q9F663 25-293 limits assumed): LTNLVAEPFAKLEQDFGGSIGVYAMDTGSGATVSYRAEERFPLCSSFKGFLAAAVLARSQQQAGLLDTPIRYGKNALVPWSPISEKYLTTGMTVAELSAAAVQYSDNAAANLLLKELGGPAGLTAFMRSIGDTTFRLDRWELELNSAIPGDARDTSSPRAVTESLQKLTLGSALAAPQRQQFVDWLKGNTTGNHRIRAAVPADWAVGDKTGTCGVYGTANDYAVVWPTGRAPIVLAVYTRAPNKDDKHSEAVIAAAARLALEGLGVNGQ

## O=C(Cc1cccs1)N[C@@H]1C(=O)N2C(C(=O)O)=C(/C=C/c3ccc([N+](=O)[O-])cc3[N+](=O)[O-])CS[C@H]12 [nitrocefin]
read-out: Km(µM) B2, with antibody B2
  Km: 121 µM
read-out: Km(µM) B5, with antibody B5
  Km: 2.19 µM
read-out: Km(µM) Control without antibody, control without antibody (controls of the B2 and B5 runs)
  Km: 1.36 µM
